Assay results from US9416383B2, “Method for enhancing catalytic activity of a lipase” (University of North Carolina at Chapel Hill, priority 2007, dated 2016).
Entries after “also recorded” stand apart in the source; their conditions may differ.

Key:
[1] = target: T1, human PLCβ3 (hPLCβ3) (Homo sapiens, UniProt Q01970); assay: PLCβ3 activity by cell free assay ([3H]-inositol phosphate formation from PIP2 in dodecylmaltoside mixed micelles); assay type: biochemical; details: for effect on activity of hPLCβ3 in DDM mixed micelles: FIG. 2; for effect on U73122-induced activation of hPLCβ3: FIGS. 3 and 6B
T1 construct: confirmed alkylation at up to eight cysteine residues on the full length protein; gift: laboratory of Dr. T. K. Harden, University of North Carolina
T1 sequence (Q01970 1-1234): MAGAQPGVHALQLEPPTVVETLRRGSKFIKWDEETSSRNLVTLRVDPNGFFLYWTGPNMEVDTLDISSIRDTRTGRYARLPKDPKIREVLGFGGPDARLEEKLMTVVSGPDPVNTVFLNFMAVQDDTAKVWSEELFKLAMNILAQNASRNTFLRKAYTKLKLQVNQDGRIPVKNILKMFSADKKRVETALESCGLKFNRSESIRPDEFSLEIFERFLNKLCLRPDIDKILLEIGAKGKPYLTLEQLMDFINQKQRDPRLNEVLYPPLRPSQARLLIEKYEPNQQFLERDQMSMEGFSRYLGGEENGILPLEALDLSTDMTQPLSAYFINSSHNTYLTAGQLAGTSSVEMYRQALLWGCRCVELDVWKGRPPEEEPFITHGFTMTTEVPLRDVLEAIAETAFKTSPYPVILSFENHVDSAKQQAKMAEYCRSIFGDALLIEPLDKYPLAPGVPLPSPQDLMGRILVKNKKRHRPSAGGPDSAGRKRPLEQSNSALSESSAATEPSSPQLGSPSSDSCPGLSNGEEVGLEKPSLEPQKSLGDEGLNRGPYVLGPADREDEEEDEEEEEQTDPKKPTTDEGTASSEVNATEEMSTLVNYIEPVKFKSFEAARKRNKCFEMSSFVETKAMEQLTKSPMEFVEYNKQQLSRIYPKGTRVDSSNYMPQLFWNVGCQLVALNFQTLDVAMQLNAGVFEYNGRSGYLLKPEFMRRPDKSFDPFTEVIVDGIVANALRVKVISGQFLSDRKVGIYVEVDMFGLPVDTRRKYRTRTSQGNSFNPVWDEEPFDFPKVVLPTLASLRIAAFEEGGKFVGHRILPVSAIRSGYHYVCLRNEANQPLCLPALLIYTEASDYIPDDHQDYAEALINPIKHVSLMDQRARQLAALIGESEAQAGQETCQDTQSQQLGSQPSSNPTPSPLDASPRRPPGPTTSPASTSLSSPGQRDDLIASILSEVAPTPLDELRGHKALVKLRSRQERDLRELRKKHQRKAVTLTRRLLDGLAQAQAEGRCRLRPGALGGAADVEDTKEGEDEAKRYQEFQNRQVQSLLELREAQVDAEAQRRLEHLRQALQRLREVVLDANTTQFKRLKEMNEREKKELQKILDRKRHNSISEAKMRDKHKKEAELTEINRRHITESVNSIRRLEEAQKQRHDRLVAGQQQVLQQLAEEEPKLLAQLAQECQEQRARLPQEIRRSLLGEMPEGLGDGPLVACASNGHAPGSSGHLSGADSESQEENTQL
Procedure: Purified human PLCβ3 protein was generously provided by the laboratory of Dr. T. K. Harden (Department of Pharmacology, University of North Carolina, Chapel Hill, N.C., United States of America). […] Briefly, hot and cold phosphatidylinositol-4,5-bisphosphate (PIP2; 5 nmol), as substrate, was reconstituted in a 1 mM dodecylmaltoside solution and mixed with assay buffer containing 40 mM Hepes (pH 7.4), 480 mM KCl, 40 mM NaCl, 8 mM EGTA, 4 mM […], and 7.6 mM CaCl2. Compounds at desired concentrations and purified PLCβ3 in 1% fatty acid-free BSA and 10 mM Hepes (pH 7.0), were subsequently added to the mixture. To initiate assays, samples were moved to a 37° C. water bath and incubated for 2-10 minutes such that less than fifteen percent total substrate was hydrolyzed. At designated times, reactions were stopped by addition of 750 μl CHCl3:MeOH:HCl (40:80:1), 100 μl water, 250 μl CHCl3, and 250 μl 0.1M HCl. Samples were vortexed and centrifuged at 3000 rpm for 10 minutes at 4° C. The amount of formed [^3H]-inositol phosphates was measured by liquid scintillation counting of 500 μl of the upper phase in a Packard Tri Carb 4000 Series […].
Data are expressed as mean±SD of three experiments performed in triplicate unless otherwise indicated. Statistical significance was evaluated using unpaired Students t tests. Data were modeled using Win-non Lin (Pharsight, Mountain View, Calif., United States of America) non-linear regression analysis for determination of EC50 (PLCβ3) and IC50 values.

[2] = target: T2, hPLCβ3 (Homo sapiens, UniProt Q01970); assay: Mass spectrometry of intact hPLCβ3 and LC/MS/MS peptide sequencing (alkylation); details: FIG. 6A
T2 construct: confirmed alkylation at up to eight cysteine residues on the full length protein; gift: laboratory of Dr. T. K. Harden, University of North Carolina
T2 sequence (Q01970 1-1234): T1 sequence (Q01970 1-1234)
Procedure: The mass-to-charge data were transformed to the mass domain using BioConfirm software from Agilent. For peptide sequencing, solution phase and SDS gel bands of unmodified and modified PLCβ3 was incubated with trypsin overnight at 37° C. […] The tryptic peptides were subsequently analyzed by nano-LC/MS/MS using a Dionex UltiMate nano LC (Sunnyvale, Calif., United States of America) coupled to Sciex (Toronto, Ontario, Canada) Q-Star Pulsar i mass spectrometer. The results were processed using MASCOT (Matrix Sciences, Boston, Mass., United States of America) protein database that had the mass of U73122 modification created as a variable modification.

[3] = test system: PLC in MDCK cells; details: ATP-stimulated, concentration dependent; cited from earlier work
[4] = test system: PLC in Caco-2 cells; details: ATP-stimulated, concentration dependent; cited from earlier work
[5] = test system: MDCK cell monolayers; details: concentration-dependent; cited from earlier work
[6] = test system: Caco-2 cell monolayers; details: concentration-dependent; cited from earlier work

| Compound | effect on activity of hPLCβ3 in DDM mixed micelles ([1]; DDM mixed micelles) | effect on U73122-induced activation of hPLCβ3 ([1]; DDM mixed micelles) | inhibition of PLC activity in MDCK cells [3] | inhibition of PLC activity in Caco-2 cells [4] | further results |
| --- | --- | --- | --- | --- | --- |
| CCN1C(=O)C=CC1=O [NEM, N-ethylmaleimide] | do not; also recorded: inability to activate | inhibits | – | – | alkylation of hPLCβ3 [2]: alkylates hPLCβ3 at multiple amino acid residues |
| COc1ccc2c(c1)CC[C@@H]1[C@@H]2CC[C@]2(C)[C@@H](NCCCCCCN3C(=O)C=CC3=O)CC[C@@H]12 [U73122] | increases the activity | – | inhibits | inhibits | EC50 [1]: 14 ± 5 µM; time dependence of hPLCβ3 activation ([1]; FIG. 4): time dependent; effect on tight junction permeability, MDCK monolayers [5]: enhances; effect on tight junction permeability, Caco-2 monolayers [6]: enhances |
| COc1ccc2c(c1)CC[C@@H]1[C@@H]2CC[C@]2(C)[C@@H](NCCCCCCN3C(=O)CCC3=O)CC[C@@H]12 [U73343] | do not | – | does not | does not | – |
| N[C@@H](CS)C(=O)O [cysteine] | – | inhibit | – | – | – |
| N[C@@H](CCC(=O)N[C@@H](CS)C(=O)NCC(=O)O)C(=O)O [glutathione] | – | inhibits | – | – | IC50 ([1]; DDM mixed micelles, mean±SD, read-out: IC50 for inhibition of U73122-induced activation of hPLCβ3): 38 ± 16 µM |
